According to patent EP4635513A1, “NEAR-INFRARED PHOTOSENSITIZER THAT CAN BE ACTIVATED IN SLIGHTLY ACIDIC TUMOR ENVIRONMENT AND PREPARATION METHOD THEREFOR AND USE THEREOF” (Shenzhen University, priority 2024, dated 2025):

Assays:
[1] = pH-response fluorescence spectra; assay type: physicochemical; conditions: pH dependence; for fluorescence emission intensity in the near-infrared region: excitation 760 nm (LET-H, LET-I), 660 nm (LET-Hcy-N); for fluorescence intensity in the visible light region: excitation 420 nm, PBS buffer with 1% DMSO
Description: The photosensitizers prepared in the Embodiments 1-8 were individually dissolved in dimethyl sulfoxide to prepare 10 mM photosensitizer stock solution, which were stored at 4 °C for subsequent use. All experiments were conducted in PBS buffer (1 ×) containing 1% DMSO. 2 µL of the photosensitizer stock solution was added to 2 mL of PBS buffer solutions at different pH values. Absorption spectra and fluorescence spectra of each photosensitizer under various pH conditions were recorded using ultraviolet-visible spectrophotometry and fluorescence spectrophotometry.

[2] = Singlet oxygen detection by ESR/EPR spectroscopy with TEMP as trapping agent; assay type: physicochemical; conditions: near-infrared irradiation
Description: Singlet oxygen generation and characterization were further analyzed by electron spin resonance (ESR) spectroscopy. Using photosensitizers LET-H' and LET-I' as examples, 2,2,6,6-tetramethyl-4-piperidone hydrochloride (TEMP) was employed as the singlet oxygen trapping agent. Two groups of photosensitizer stock solutions were prepared and diluted with TEMP added, one group remained untreated, while another was irradiated with the near-infrared laser, and a blank control group was also prepared for comparison.

[3] = Singlet oxygen generation assay with DPBF as trapping agent; assay type: physicochemical; conditions: 808 nm laser irradiation, 0.2 W cm^-2; DMSO
Description: The photosensitizers LET-R (R = H, Cl, Br, I) prepared in the Embodiments 1-4 were assessed. 1,3-Diphenylisobenzofuran (DPBF) was selected as a singlet oxygen trapping agent to determine a singlet oxygen generation capability of each photosensitizer molecule.
A 1 mM DPBF stock solution was first prepared for use. An appropriate volume of freshly prepared DPBF solution was then added to DMSO to adjust the absorbance at 415 nm to approximately 1.0, followed by addition of photosensitizer solution at appropriate concentration. The ultraviolet-visible absorption spectra were measured after different irradiation times with a near-infrared laser. The singlet oxygen generation capability of each photosensitizer was evaluated by monitoring the absorbance changes of DPBF at 415 nm.

[4] = Singlet oxygen quantum yield with ICG as reference standard; assay type: physicochemical; conditions: DPBF in dichloromethane, near-infrared laser
Description: Using indocyanine green (ICG) as a reference standard, the singlet oxygen quantum yields of photosensitizers LET-R (R = H, Cl, Br, I) were determined. At first, an appropriate volume of freshly prepared DPBF solution was added to dichloromethane to adjust the absorbance at 415 nm to approximately 1.0, followed by addition of test solution (photosensitizer or ICG) at optimized concentration. Samples were then irradiated with a near-infrared laser, and time-dependent ultraviolet-visible spectral changes were recorded. The singlet oxygen quantum yield was calculated using Formula (1): ΦΔ = […] [formula]
ΦΔ represents the singlet oxygen quantum yield of test molecules, and ΦICG represents the singlet oxygen quantum yield of ICG. "ps" represents the photosensitizer under investigation, while k represents a slope of DPBF absorbance decay at 415 nm over time. And correction factor F is calculated using Formula (2): […] [formula]
In Formula (2), OD represents the absorbance of solutions at a laser wavelength.

[5] = test system: murine mammary carcinoma cells (4T1 cell line); experiment: Photodynamic efficacy at cellular level, cell viability assay; assay type: cell-based; conditions: Mus musculus, light or radiation study, 4T1 cells, 6 hours incubation, 808 nm (0.2 W/cm^2) laser, 20 minutes irradiation
Description: The photodynamic therapeutic efficacy was evaluated using standardized […] assay protocols to assess the effects of photosensitizer molecules on viability of murine mammary carcinoma cells (4T1 cell line).
Cell culture was performed using Dulbecco's Modified Eagle Medium (DMEM) high glucose supplemented with 10% fetal bovine serum (FBS) and 1% antibiotic-antimycotic solution (penicillin-streptomycin mixture), and maintained in a humidified incubator at 37 °C with 5% CO2. Experimental procedures were initiated when cell density reached 80% confluency. Using photosensitizers LET-H and LET-I as examples, 4T1 cells were seeded in 96-well plates (100 µL, 5×10^3 cells/well) and cultured for 24 hours, then original medium was discarded and replaced with medium containing photosensitizer molecules at a concentration of 20 µM. After 6 hours of incubation, the medium in each well was replaced with fresh medium, and irradiated with an 808 nm (0.2 W/cm^2) laser for different times (0, 5, 10 and 20 min), and placed back in cell culture incubator for continued incubation. After irradiation, the plates were returned to the incubator for continued culture. After 12 hours of incubation, 10 µL of CCK-8 solution was added to each well, and the plates were incubated for one additional hour. Absorbance was subsequently measured at 450 nm using a microplate reader.

Row | fluorescence intensity in the visible light region [1] | Structure (SMILES) | fluorescence emission intensity in the near-infrared region [1] | EPR spectrum, singlet oxygen production [2] | singlet oxygen generation capability (DPBF degradation, absorbance at 415 nm) [3] | singlet oxygen quantum yield [4] | viability at 20 µM [5] [%]
1 | – | CCN(CC)c1ccc2c(c1)OC1=C(C=CC34OCCCN3c3ccccc3C4(C)C)CCCC1=C2 (stereo not shown) [LET-Hcy-N] | enhanced fluorescence emission intensity at higher pH values | – | – | – | –
2 | decreased with increasing pH | CC1(C)C(=CC=C2CCCC(C=CC34OCCCN3c3ccccc3C4(C)C)=C2Cl)N(CCCO)c2ccccc21 (stereo not shown) [LET-H] | enhanced fluorescence emission intensity at higher pH values | three isointense paramagnetic resonance peaks (1:1:1) | – | – | –
3 | decreased with increasing pH | CC1(C)C(=CC=C2CCCC(C=CC34OCCCN3c3ccc(I)cc3C4(C)C)=C2Cl)N(CCCO)c2ccc(I)cc21 (stereo not shown) [LET-I] | enhanced fluorescence emission intensity at higher pH values | three isointense paramagnetic resonance peaks (1:1:1) | superior singlet oxygen generation efficiency | superior singlet oxygen generation capability | < 30
